Data set [1] has as its system Eschericia coli Ampicillin-resistant. Nature of the data set: Anti-bacterial activity, broth culture MIC. Type of data set: cell-based. The note with it: read-out: Approximate Minimum Inhibitory Concentration, MIC. The procedure: (§1) Several uncharged or negatively charged triterpenes, and several positively charged triterpenes of the invention were tested for anti-bacterial activity against antibiotic-susceptible and antibiotic resistant strains of four types of bacteria of concern in clinics and hospitals. The triterpenes weres tested in broth culture in triplicate for ability to inhibit bacterial growth. The compounds tested are those listed below.
(§2) The lowest concentration which inhibits bacterial growth is referred to as the minimum inhibitory concentration (MIC), the standard measurement of anti-microbial activity.

Data set [2] deals with Escherichia coli Ampicillin sensitive. The data set can be described thus: Anti-bacterial activity, broth culture MIC. The conditions noted are these: read-out: Approximate Minimum Inhibitory Concentration, MIC. Type of data set: cell-based. The procedure:
as §1, §2

Data set [3] has as its system Enterococcus faecium Vancomycin-sensitive (second listed). Nature of the data set: Anti-bacterial activity, broth culture MIC. Type of data set: cell-based. The conditions noted are these: Enterococcus faecium, read-out: Approximate Minimum Inhibitory Concentration, MIC. The procedure:
as §1, §2

Data set [4] has as its system Staphylococcus aureus Methicillin-sensitive. The data set can be described thus: Anti-bacterial activity, broth culture MIC. Type of data set: cell-based. The note with it: Staphylococcus aureus, read-out: Approximate Minimum Inhibitory Concentration, MIC. The procedure:
as §1, §2

Data set [5] deals with Staphylococcus aureus Methicillin-resistant. Nature of the data set: Anti-bacterial activity, broth culture MIC. Type of data set: cell-based. The conditions noted are these: Staphylococcus aureus, read-out: Approximate Minimum Inhibitory Concentration, MIC. The procedure:
as §1, §2

Data set [6] deals with Enterococcus faecium Vancomycin-sensitive (first listed). The data set can be described thus: Anti-bacterial activity, broth culture MIC. The note with it: Enterococcus faecium, read-out: Approximate Minimum Inhibitory Concentration, MIC. The class given is cell-based. The procedure:
as §1, §2

Data set [7] has as its system Pseudomonas aeruginosa Multi-drug resistant. Nature of the data set: Anti-bacterial activity, broth culture MIC. Type of data set: cell-based. The note with it: read-out: Approximate Minimum Inhibitory Concentration, MIC. The procedure:
as §1, §2

For data set [8], the system named is Pseudomonas aeruginosa Antibiotic sensitive. The data set can be described thus: Anti-bacterial activity, broth culture MIC. Type of data set: cell-based. The note with it: read-out: Approximate Minimum Inhibitory Concentration, MIC. The procedure: as §1, §2
For data set [9], the system named is dollar spot. The data set can be described thus: Bentgrass dollar spot trial at Rutgers University, lesion count. Type of data set: in vivo. The note with it: text summary of Table 7. The procedure: Similar experiments were performed at Rutgers University to test for treatment of bentgrass infected with dollar spot. Test compounds were mixed in aqueous solution with the adjuvant Latron B-1956® (Rohm and Haas) and applied to the grass at a rate of 4.18 fluid ounces per 1000 square feet and an interval of every 7 days. The number of lesions per plot were then counted and averaged over the replicate plots. Treatment with fertilizers or other fungicides were also performed.

The conditions of data set [10]: background statement; cited from earlier work.

The structures appear in SMILES notation.

For the molecule `C=C(C)[C@@H]1CCC2(COC(=O)C[n+]3cccc(CNC(N)=O)c3)CC[C@]3(C)C(CCC4[C@@]5(C)CC[C@H](OC(=O)C[n+]6cccc(CNC(N)=O)c6)C(C)(C)C5CC[C@]43C)C12.Cl.Cl` (some centres unmarked), the melting point (usually the temperature, or range, at which the solid turns liquid) was 245 to 247 °C (dec.).
For `Br.Br.C=C(C)[C@@H]1CC[C@]2(COC(=O)CCC[N+]34CCN(CC3)CC4)CC[C@]3(C)C(CCC4[C@@]5(C)CC[C@H](OC(=O)CCC[N+]67CCN(CC6)CC7)C(C)(C)C5CC[C@]43C)C12` (some centres unmarked) [Compound 25, Lup-20(29)-ene-3,28-bis[(N-(1,4-diazabicyclo[2.2.21]octyl)4-butyrate)]dibromide], the MIC stood at 100 µg/mL in data set [1]; 50 µg/mL in data set [2]; 10 µg/mL in data set [3]; 2 µg/mL in data set [4]; 2 µg/mL in data set [5]; 5 µg/mL in [6].
In the case of `Br.C=C(C)[C@@H]1CC[C@]2(COC(=O)CCC[n+]3ccc(N(C)C)cc3)CC[C@]3(C)C(CCC4[C@@]5(C)CC[C@H](OC(=O)CCC[n+]6ccc(N(C)C)cc6)C(C)(C)C5CC[C@]43C)C12` (some centres unmarked) [Compound 40, Lup-20(29)-ene3,28-bis [N-(4-dimethylaminopyridinium)4-butyrate] dibromide], the MIC in [1] came out at 50 µg/mL; in data set [2] it was 20 µg/mL; in data set [7], 200 µg/mL; in [8] it was 200 µg/mL; in data set [3] it was 5 µg/mL; in data set [4] it was 5 µg/mL. Also, the values for the MIC in [5] and in data set [6] were 5 µg/mL and 2 µg/mL, respectively.
`CCCCCCCCCC[N+](C)(CCCCCCCCCC)CC(=O)O[C@H]1CC[C@@]2(C)C(CC[C@]3(C)C2CC[C@@H]2C4[C@H]5OC[C@@]4(CCC5(C)C)CC[C@]23C)C1(C)C.[Cl-]` (stereo partly drawn) [Compound 80, 3β-[(N-methyl-N,N-didecyl)aminoacetyloxy]-19β,28-epoxy-18α-oleanan chloride]: the “effectiveness against dollar spot” value in data set [9] is listed as “particularly effective”.
On to `C=C(C)[C@@H]1CC[C@]2(CO)CC[C@]3(C)[C@H](CC[C@@H]4[C@@]5(C)CC[C@H](O)C(C)(C)[C@@H]5CC[C@]43C)[C@@H]12` [betulin], for which the solubility in water result in [10] is listed as “about 0.15 mg/l”.

Source of the values: patent US7199114B2, “Triterpene quaternary salts as biologically active surfactants” (The Regents of the University of Minnesota, priority 2002, dated 2007).
